ChEMBL document CHEMBL1201862, “PubChem BioAssay data set” (2004)
Active and inactive are the calls of the source.

Tests used:
Beta-galactosidase = Beta-galactosidase (Escherichia coli, UniProt Q8VNN2); experiment: Dose response counterscreen for EBI2 assay utilizing the enzyme, b-galactosidase.; type: functional
INS1 = experiment: INS-1E survival protection against cytokine death – cell-based, luminescence, retest, dose response (AID 449756); type: functional; conditions: Rattus norvegicus;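 further: cell death triggered by IL-1 beta plus TNF-alpha plus IFN-gamma mixture; protective hits raise ATP signal compared with cytokine alone wells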
[1] = biological target: COUP transcription factor 2 (Homo sapiens, UniProt P24468); experiment: Luminescence-based cell-based high throughput dose response assay to identify inhibitors of COUP-TFII (NR2F2).; type: functional;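 further: HEK293 cells transiently cotransfected with COUP-TFII expression vector and reporter; luciferase reporter luminescence driven by COUP-TFII from the pX2-168 reporter plasmid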
[2] = biological target: Metabotropic glutamate receptor 3 (Rattus norvegicus, UniProt P31422); experiment: inhibitors of rat mGlu3 Galpha15 signaling – TREx293 cells, calcium flux, mGlu3 NAM project, dose response (AID 651840); type: functional
[3] = cytotoxicity in HEK293 background cells – cell-based, dry powder, set 2, counter-screen for EBV LMP1 inhibitor project, dose response (AID 624374); type: functional
[4] = inhibitors of EBV LMP1 NF-kappaB signaling – cell-based, luciferase reporter, luminescence, dry powder, set 2, dose response (AID 624376); type: functional
[5] = OVCAR4 cell viability loss – plate reader, dry powder, SA11, cytotoxicity control for PAX8 inhibitor project, dose response (AID 743150); type: functional, cell-based; conditions: OVCAR-4
[6] = COV362 cell viability loss – plate reader, dry powder, SA12, cytotoxicity control for PAX8 inhibitor project, dose response (AID 743144); type: functional, cell-based
[7] = HEK-293T viability loss after treatment – luminescence, T-cell screen hits, cytotoxicity control for TCR NF-kB inhibitor project, dose response (AID 489026); type: functional, cell-based;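 further: cells exposed to compound about 14 hours before the viability readout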
[8] = toxicity toward HepG2 liver cells – cell-based, plate reader, cherry-pick, antagonist series, cytotoxicity control, dose response (AID 743416); type: functional
[9] = blockade of melanocortin 4 receptor signaling – cell-based, plate reader, cherry pick, counter-screen for LGR2 antagonist project, dose response (AID 743444); type: functional;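 further: transfected HEK 293 cells stimulated with alpha-MSH peptide; potency of inhibitors of the alpha-MSH evoked signal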
[10] = PAX8-dependent cell viability loss – plate reader, dry powder, dose response (AID 743049); type: functional, cell-based
[11] = A549 cell cytotoxicity, dose response, cytotoxicity control, plate reader, cherry-pick, antagonist series (AID 743412); type: functional, cell-based
[12] = toxicity toward immortalized ovarian surface epithelium – cell-based, plate reader, dry powder samples, cytotoxicity control for PAX8 inhibitor project, dose response (AID 743045); type: functional
[13] = blockers of bursicon-stimulated LGR2 cAMP reporter – cell-based, HEK293, CRE-luciferase reporter, cherry pick, set 2, dose response (AID 743343); type: functional;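 further: transfected cells were stimulated with diluted bursicon conditioned medium after compound addition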
[14] = OVCAR-3 cell viability loss – plate reader, dry powder samples, PAX8 inhibitor project, dose response (AID 743044); type: functional, cell-based
[15] = viability loss in HEK293 cells – cell-based, plate reader, cherry-picked samples, cytotoxicity control, dose response (AID 743446); type: functional
[16] = COV434 cell viability loss – plate reader, dry powder, SA7, cytotoxicity control for PAX8 inhibitor project, dose response (AID 743145); type: functional, cell-based
[17] = PAX5 cellular inhibition readout – cell-based, plate reader, dry powder samples, selectivity assay for PAX8 inhibitor project, dose response (AID 743047); type: functional;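 further: HEK293 cells carrying a Pax5 driven CD19 promoter luciferase reporter; potency of inhibitors that lower reporter luminescence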
[18] = IGROV1 cell killing – plate reader, dry powder samples, PAX8 inhibitor project, dose response (AID 743043); type: functional, cell-based; conditions: IGROV-1
[19] = A2780 cell killing – plate reader, dry powder samples, cytotoxicity control, dose response (AID 743046); type: functional, cell-based
[20] = OV-90 cell viability loss – plate reader, dry powder, SA8, PAX8 inhibitor project, dose response (AID 743149); type: functional, cell-based
[21] = inhibitors acting on PAX2 in cells – cell-based, plate reader, dry powder samples, selectivity assay for PAX8 inhibitor project, dose response (AID 743048); type: functional;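 further: HEK293 cells carrying a WT1 promoter luciferase reporter driven by expressed Pax2; potency is for inhibition of Pax2 driven reporter signal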
[22] = general cell-killing toxicity readout – plate reader, dry powder samples, cytotoxicity control for PAX8 inhibitor project, dose response (AID 743021); type: functional, cell-based
Paired box protein Pax-8 = Paired box protein Pax-8 (Homo sapiens, UniProt Q06710); experiment: PAX8 transcriptional activity inhibition in RMG-I – RMG-I cells, luciferase, cherry-pick, dose response (AID 687027); type: functional, cell-based;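 further: luciferase reporter driven by Pax8 target thyroperoxidase promoter measured by SteadyGlo luminescence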
[23] = viability loss in HeLa cells – cytotoxicity control for MgcRacGAP inhibitor project, dose response (AID 624300); type: functional
[24] = biological target: T1, Rac GTPase-activating protein 1 (Homo sapiens, UniProt Q9H0H5); experiment: blockers of MgcRacGAP-driven Rac1 GTP hydrolysis – biochemical, ADP Hunter fluorescence, primary and confirmatory, confirmation (AID 624330); type: functional
T1 sequence (Q9H0H5 whole entry): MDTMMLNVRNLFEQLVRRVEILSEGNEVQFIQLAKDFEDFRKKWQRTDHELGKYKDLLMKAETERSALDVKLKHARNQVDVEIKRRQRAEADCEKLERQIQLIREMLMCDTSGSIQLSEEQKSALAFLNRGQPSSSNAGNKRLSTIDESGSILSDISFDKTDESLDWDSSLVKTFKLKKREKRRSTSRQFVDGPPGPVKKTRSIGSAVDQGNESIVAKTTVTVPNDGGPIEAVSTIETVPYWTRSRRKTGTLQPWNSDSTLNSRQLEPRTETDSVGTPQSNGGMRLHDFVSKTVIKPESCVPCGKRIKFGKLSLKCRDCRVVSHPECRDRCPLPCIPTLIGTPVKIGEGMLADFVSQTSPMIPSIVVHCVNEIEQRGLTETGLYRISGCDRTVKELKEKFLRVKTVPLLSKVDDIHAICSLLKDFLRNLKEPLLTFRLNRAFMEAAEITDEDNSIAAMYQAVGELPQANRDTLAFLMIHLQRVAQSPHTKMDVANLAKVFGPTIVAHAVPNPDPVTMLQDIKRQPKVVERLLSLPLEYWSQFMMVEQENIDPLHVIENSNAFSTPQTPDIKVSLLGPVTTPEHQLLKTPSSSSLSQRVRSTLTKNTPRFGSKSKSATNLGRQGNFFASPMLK

[25] = kidney cell line viability loss – HEK293T, luminescence plate reader, powder samples, set 4, cytotoxicity control, dose response (AID 651863); type: functional, cell-based; conditions: HEK293
[26] = liver cell line viability loss – HepG2, luminescence plate reader, powder samples, set 2, cytotoxicity control, dose response (AID 651860); type: functional, cell-based
[27] = biological target: T2, Sentrin-specific protease 1 (Homo sapiens, UniProt Q9P0U3); experiment: SENP1 catalytic domain blockers, concentration series – biochemical, kinetic FRET, dose response (AID 651697); type: functional; conditions: read-out: IC50_Mean
[28] = biological target: T2, Sentrin-specific protease 1; experiment: Dose response confirmation of small molecule inhibitors of the catalytic domain of the SUMO protease, SENP1 in a FRET assay.; type: functional; conditions: read-out: IC50_Mean
[29] = biological target: T3, Trace amine-associated receptor 1 (Homo sapiens, UniProt Q96RJ0); experiment: Fluorescence-based cell-based high throughput dose response assay to identify agonists of the human trace amine associated receptor 1 (TAAR1).; type: functional
[30] = biological target: T3, Trace amine-associated receptor 1; experiment: Counterscreen for agonists of the human trace amine associated receptor 1 (hTAAR1): Fluorescence-based cell-based high throughput dose response assay to identify hTAAR1 agonist that also desensitize TAAR1 receptor response.; type: functional
cells [31] = type: functional, cell-based
cells [32] = type: functional, cell-based; remark: listed apart in the source

T3 sequence (Q96RJ0 whole entry): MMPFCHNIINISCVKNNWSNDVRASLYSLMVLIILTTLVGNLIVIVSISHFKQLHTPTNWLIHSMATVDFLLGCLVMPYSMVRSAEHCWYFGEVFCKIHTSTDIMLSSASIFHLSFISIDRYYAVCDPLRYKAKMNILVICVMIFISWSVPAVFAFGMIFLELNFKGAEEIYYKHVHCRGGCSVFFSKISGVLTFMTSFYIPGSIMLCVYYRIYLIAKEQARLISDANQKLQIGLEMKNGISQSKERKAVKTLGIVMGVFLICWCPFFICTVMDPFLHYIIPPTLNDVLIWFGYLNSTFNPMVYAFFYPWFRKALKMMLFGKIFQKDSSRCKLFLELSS
T2 sequence (Q9P0U3 whole entry, the tested form may be a part): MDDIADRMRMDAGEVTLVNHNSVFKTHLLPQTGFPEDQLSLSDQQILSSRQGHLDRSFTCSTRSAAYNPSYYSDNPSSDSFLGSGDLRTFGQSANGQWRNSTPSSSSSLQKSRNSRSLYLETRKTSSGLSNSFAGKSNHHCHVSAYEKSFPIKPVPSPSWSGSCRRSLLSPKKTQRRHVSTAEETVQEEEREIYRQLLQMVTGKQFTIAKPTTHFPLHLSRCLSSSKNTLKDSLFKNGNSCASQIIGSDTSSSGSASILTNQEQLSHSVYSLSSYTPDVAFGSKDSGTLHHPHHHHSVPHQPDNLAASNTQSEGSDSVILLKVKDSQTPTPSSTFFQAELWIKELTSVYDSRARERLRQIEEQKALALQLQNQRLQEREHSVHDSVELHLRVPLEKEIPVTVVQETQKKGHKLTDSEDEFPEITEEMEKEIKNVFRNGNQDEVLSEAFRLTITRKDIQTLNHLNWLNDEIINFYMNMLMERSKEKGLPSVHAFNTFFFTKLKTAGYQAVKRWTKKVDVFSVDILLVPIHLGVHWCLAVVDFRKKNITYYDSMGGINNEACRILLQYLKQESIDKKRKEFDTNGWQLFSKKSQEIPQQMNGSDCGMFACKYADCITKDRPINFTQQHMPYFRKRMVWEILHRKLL
Paired box protein Pax-8, sequence (Q06710 whole entry): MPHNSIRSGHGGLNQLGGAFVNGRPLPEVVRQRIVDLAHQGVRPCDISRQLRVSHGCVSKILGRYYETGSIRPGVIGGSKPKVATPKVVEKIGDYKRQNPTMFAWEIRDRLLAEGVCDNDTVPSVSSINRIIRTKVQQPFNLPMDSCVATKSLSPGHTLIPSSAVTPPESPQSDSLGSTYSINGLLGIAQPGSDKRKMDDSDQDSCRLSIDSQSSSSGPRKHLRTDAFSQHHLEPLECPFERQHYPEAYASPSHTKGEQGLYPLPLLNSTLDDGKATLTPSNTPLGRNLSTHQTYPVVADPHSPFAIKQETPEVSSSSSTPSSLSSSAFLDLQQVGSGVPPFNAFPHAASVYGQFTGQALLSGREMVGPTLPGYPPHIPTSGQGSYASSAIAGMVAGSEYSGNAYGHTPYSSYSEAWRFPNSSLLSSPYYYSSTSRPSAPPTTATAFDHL
Beta-galactosidase, sequence (Q8VNN2 whole entry): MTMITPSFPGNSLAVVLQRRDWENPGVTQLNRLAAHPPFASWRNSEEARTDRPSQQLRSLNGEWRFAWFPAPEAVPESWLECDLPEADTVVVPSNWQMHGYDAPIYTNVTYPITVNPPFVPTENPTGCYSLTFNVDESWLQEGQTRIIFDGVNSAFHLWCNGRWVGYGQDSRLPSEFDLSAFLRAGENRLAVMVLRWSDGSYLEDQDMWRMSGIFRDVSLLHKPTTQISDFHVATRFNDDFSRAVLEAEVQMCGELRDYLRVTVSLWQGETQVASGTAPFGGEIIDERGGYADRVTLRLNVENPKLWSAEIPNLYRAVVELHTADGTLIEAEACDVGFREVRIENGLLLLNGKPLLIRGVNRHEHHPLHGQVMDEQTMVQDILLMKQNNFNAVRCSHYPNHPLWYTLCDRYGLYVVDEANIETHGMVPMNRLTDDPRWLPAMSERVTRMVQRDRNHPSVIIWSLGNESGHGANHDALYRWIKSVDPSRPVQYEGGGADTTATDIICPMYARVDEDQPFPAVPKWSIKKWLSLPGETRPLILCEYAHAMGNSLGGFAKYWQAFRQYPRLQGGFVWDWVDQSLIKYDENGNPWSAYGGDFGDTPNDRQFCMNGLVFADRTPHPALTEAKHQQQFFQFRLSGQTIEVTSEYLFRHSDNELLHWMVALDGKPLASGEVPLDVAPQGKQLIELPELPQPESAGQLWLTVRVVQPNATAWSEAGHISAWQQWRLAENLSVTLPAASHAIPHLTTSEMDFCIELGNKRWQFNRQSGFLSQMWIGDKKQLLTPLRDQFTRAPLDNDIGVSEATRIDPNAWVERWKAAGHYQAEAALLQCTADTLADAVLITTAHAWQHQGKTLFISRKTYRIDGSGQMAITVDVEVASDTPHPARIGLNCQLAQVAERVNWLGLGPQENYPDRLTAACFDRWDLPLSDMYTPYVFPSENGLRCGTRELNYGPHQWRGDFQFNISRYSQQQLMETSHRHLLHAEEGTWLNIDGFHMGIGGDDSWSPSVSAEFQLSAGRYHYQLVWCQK
Metabotropic glutamate receptor 3, sequence (P31422 whole entry): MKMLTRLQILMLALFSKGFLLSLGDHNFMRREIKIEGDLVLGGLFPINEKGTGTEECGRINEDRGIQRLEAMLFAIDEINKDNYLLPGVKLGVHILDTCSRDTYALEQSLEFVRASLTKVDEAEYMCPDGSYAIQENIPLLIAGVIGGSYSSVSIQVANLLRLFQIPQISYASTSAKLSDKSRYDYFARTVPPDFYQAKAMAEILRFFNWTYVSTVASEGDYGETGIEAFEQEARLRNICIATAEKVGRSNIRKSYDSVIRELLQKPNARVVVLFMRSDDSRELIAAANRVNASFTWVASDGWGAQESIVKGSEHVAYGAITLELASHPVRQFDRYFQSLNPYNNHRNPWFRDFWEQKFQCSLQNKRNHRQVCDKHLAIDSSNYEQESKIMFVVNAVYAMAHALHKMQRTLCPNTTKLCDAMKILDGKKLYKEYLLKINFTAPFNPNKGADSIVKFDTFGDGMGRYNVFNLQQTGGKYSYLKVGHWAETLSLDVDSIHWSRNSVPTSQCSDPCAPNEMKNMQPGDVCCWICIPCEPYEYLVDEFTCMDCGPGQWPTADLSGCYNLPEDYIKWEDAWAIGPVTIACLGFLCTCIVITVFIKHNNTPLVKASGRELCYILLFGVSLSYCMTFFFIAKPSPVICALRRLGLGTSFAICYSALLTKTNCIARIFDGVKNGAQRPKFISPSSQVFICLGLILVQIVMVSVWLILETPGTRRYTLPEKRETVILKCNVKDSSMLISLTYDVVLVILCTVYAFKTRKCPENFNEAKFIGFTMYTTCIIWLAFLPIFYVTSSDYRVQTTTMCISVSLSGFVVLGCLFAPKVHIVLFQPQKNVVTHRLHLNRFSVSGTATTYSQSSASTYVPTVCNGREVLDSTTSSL
COUP transcription factor 2, sequence (P24468 whole entry): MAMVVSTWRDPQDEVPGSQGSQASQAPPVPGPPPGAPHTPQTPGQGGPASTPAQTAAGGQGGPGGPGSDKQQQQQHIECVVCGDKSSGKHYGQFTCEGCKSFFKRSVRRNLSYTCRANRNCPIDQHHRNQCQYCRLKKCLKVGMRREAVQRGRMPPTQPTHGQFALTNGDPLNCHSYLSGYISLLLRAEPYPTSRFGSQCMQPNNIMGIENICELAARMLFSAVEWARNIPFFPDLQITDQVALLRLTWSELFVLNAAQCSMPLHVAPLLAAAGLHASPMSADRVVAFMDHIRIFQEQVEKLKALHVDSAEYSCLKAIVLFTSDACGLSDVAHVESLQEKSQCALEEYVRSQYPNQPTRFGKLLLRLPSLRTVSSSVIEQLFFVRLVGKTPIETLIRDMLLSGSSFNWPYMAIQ

Compound: COc1cc(-c2nc3ccc(C)cn3c2NCc2ccccc2)ccc1-c1cccc(Cl)c1
- IC50 (Beta-galactosidase): 96 µM (inactive)
- AC50 (INS1): 5.14 µM (active)

Compound: Cc1nn(C)c(C)c1NC(=O)COc1ccc(Cl)cc1Br
- IC50 [1]: 8.76 µM (active)

Compound: COc1ccc(C#Cc2ccc(C(=O)N3CCCC4(C3)OCCO4)cc2)cc1
- IC50 [2]: 7.17 µM

Compound: CO[C@H](CN(C)S(=O)(=O)c1cccc(Cl)c1)[C@@H](C)CN([C@H](C)CO)S(=O)(=O)c1ccc(Cl)cc1
- AbsAC35 [3]: 104.79 µM
- AbsAC35 [4]: 36.95 µM

Compound: Cc1cnc(NC(=O)c2ccc3c(c2)OCCO3)s1
- AC50 [5]: 26.8 µM (active)
- AC50 [6]: 10.2 µM (active)
- IC50 [7]: > 80 µM (inactive)
- AC50 [8]: 36 µM (active)
- AC50 [9]: 0.794 µM (active)
- AC50 [10]: 13.1 µM (active)
- AC50 [11]: 5.12 µM (active)
- AC50 [12]: 26 µM (active)
- AC50 [13]: 0.854 µM (active)
- AC50 [14]: 18.4 µM (active)
- AC50 [15]: 31.4 µM (active)
- AC50 [16]: 29.4 µM (active)
- AC50 [17]: 17.5 µM (active)
- AC50 [18]: 20.7 µM (active)
- AC50 [19]: 28.8 µM (active)
- AC50 [20]: 9.33 µM (active)
- AC50 [21]: 13.4 µM (active)
- AC50 [22]: 52.3 µM (active)
- AC50 (Paired box protein Pax-8): 3.49 µM (active)

Compound: CN(c1ccc(O)cc1)c1nc(-c2ccccc2)cs1
- CC50 [23]: 100 µM (active)
- IC50 [24]: 57.7 µM (active)

Compound: COc1ccc(CC/N=C2\C=C(NS(=O)(=O)c3c(C)cc(C)cc3C)c3ccccc3C2=O)cc1
- AC50 [25]: > 52 µM (inactive)
- AC50 [26]: > 52 µM (inactive)

Compound: COc1ccc2sc(/C=C/c3ccccc3O)[n+](C)c2c1
- IC50 [27]: 14.3 µM (active)
- IC50 [28]: 10.2 µM (active)

Compound: CC(=NCCc1ccc(O)cc1)C1=C(O)OCC1
- EC50 [29]: 2.05 µM (active)
- IC50 [30]: 9.27 µM (active)
- EC50 (cells [31]): > 29.9 µM (inactive)
- IC50 (cells [32]): > 29.9 µM (inactive)
